Measured values: patent EP4501942A1, “PEPTIDOMIMETICS WITH ANTIVIRAL ACTIVITY” (priority 2023, dated 2025)
Read-outs that look alike come from different tables or passages of the source.

What was measured:
[1] = molecular target: SARS-CoV-2 M^pro protein (Severe acute respiratory syndrome coronavirus 2, UniProt P0DTD1); assay: biochemical; conditions: for inhibition at 10 µM: read-out: % of inhibition at 10 µM; for IC50: isolated SARS-CoV-2 M^pro, three separate experiments in duplicate, read-out: IC50, mean±SD
[2] = tested on: GFP-expressing recombinant vesicular stomatitis virus (VSV-GFP); assay: microbe, parasite or virus in culture; format: cell-based; conditions: A549-ACE2, 16 h
[3] = in vitro; conditions: human
[4] = in vitro
[5] = tested on: SARS-CoV-2; assay: microbe, parasite or virus in culture; format: cell-based; conditions: Severe acute respiratory syndrome coronavirus 2, SARS-CoV-2, A549-ACE2 cells, MOI 0.005, 48 h; for EC50: read-out: EC50; for EC90: read-out: EC90
[6] = Cytotoxicity MTT assay in uninfected A549-ACE2 cells; format: cell-based; conditions: human
Procedure: To evaluate the cytotoxicity profile of the compounds MTT assays were performed in A549-ACE2 cells. Uninfected cells were incubated with a range of compound concentrations (from 100 to 1 µM) for forty-eight hours, time at which the MTT substrate [3-(4,5-dimethylthiazol-2-yl)-2,5-diphenyltetrazolium bromide] was added and the formation of formazan precipitates was evaluated two hours later, using a colorimetric readout. Vehicle-treated (DMSO) cells were used as reference (100 %).

SMILES | inhibition at 10 µM [1] [%] | EC50 [2] [µM] | EC90 [2] [µM] | CC50 [3] [µM] | CC50 [4] [µM] | IC50 [1] [nM] | EC50 [5] [nM] | EC90 [5] [µM] | CC50 at 48 h [6] [µM]
CCCC[C@@H](C#N)NC(=O)[C@]1(CC(C)C)[C@H](C)CN1C(=O)[C@@H](NC(=O)NC(C)(C)C)C(C)(C)C [Example 25, ^tBuNHCO-L-Tbg-(αS,β'R)-Azl-NH-[(1S)-1-cyano]pentane] | 0 | > 50 | > 50 | > 50 | > 50 |  |  |  | 
C[C@@H]1CN(C(=O)[C@@H](NC(=O)OC(C)(C)C)C(C)(C)C)[C@]1(Cc1ccccc1)C(=O)N[C@H](C#N)C[C@@H]1CCNC1=O [Example 14] |  | > 50 | > 50 | > 50 | > 50 | 300 ± 30 | 1000 | 3 | > 100
CC(C)C[C@@]1(C(=O)N[C@H](C#N)C[C@@H]2CCNC2=O)[C@H](C)CN1C(=O)[C@@H](NC(=O)OCc1ccccc1)C(C)C [Example 1] |  |  |  |  |  | 1990 ± 1000 | 5000 | 20 | > 100
CC(C)C[C@@]1(C(=O)N[C@H](C=O)C[C@@H]2CCNC2=O)[C@H](C)CN1C(=O)[C@@H](NC(=O)OCc1ccccc1)C(C)C [Example 27, Z-L-Val-(αS,β'R)-Azl-L-Ala(3S-2-oxopyrrolidin-3-yl)-H] |  | > 50 | > 50 | > 50 |  | 77 ± 20 | 1000 | 5 | > 100
CC(C)[C@H](NC(=O)C(F)(F)F)C(=O)N1C[C@@H](C)[C@@]1(Cc1ccccc1)C(=O)N[C@H](C#N)C[C@@H]1CCNC1=O [Example 7] |  |  |  |  |  | 200 ± 30 | 2000 | 12 | > 100
CC(C)[C@H](NC(=O)OC(C)(C)C)C(=O)N1C[C@@H](C)[C@@]1(Cc1ccccc1)C(=O)N[C@H](C#N)C[C@@H]1CCNC1=O [Example 6] |  | > 50 | > 50 | > 50 | > 50 | 70 ± 10 | 1000 | 3 | > 100
C[C@@H]1CN(C(=O)[C@@H](NC(=O)OCc2ccccc2)C(C)(C)C)[C@]1(Cc1ccccc1)C(=O)N[C@H](C#N)Cc1c[nH]cn1 [Example 24] | 10 |  |  |  |  |  | 18000 | 40 | > 100
CC(C)[C@H](NC(=O)OC(C)(C)C)C(=O)N1C[C@@H](C)[C@@]1(CC1CCCCC1)C(=O)N[C@H](C#N)C[C@@H]1CCNC1=O [Example 36] |  | > 50 | > 50 | > 50 | > 50 | 190 ± 10 | 2000 | 4 | > 100
COC(=O)N[C@H](C(=O)N1C[C@@H](C)[C@@]1(Cc1ccccc1)C(=O)N[C@H](C#N)C[C@@H]1CCNC1=O)C(C)(C)C [Example 16] |  |  |  |  |  | 940 ± 170 | 3000 | 20 | > 100
CCCC[C@@H](C#N)NC(=O)[C@]1(CC(C)C)[C@H](C)CN1C(=O)[C@@H](NC(=O)OC(C)(C)C)C(C)(C)C [Example 34, Boc-L-Tbg-(aS,β'R)-Azl-NH-[(1S)-1-cyano]pentane] | 0 |  |  |  | > 50 |  |  |  | 
C[C@@H]1CN(C(=O)[C@@H](NC(=O)OC(C)(C)C)C(C)(C)C)[C@]1(Cc1ccccc1)C(=O)N[C@H](C=O)C[C@@H]1CCNC1=O [Example 29, Boc-L-Tbg-(αS,β'R')-Azf-L-Ala(3S-2-oxopyrrolidin-3-yl)-H] |  | > 50 | > 50 | > 50 | > 50 | 27 ± 6 | 1000 | 2 | > 100
Cc1ccc(OCC(=O)N[C@H](C(=O)N2C[C@@H](C)[C@@]2(Cc2ccccc2)C(=O)N[C@H](C#N)C[C@@H]2CCNC2=O)C(C)(C)C)cc1 [Example 17] |  |  |  |  |  | 1030 | 3000 | 18 | 100
CC(C)[C@H](NC(=O)OCc1ccccc1)C(=O)N1C[C@@H](C)[C@@]1(Cc1ccccc1)C(=O)N[C@H](C=O)C[C@@H]1CCNC1=O [Example 28, Z-L-Val-(αS,β'R)-Azf-L-Ala(3S-2-oxopyrrolidin-3-yl)-H] |  |  |  |  |  | 5 ± 2 | 2000 | 12 | > 100
C[C@@H]1CN(C(=O)[C@@H](NC(=O)OCC(F)F)C(C)(C)C)[C@]1(Cc1ccccc1)C(=O)N[C@H](C=O)C[C@@H]1CCNC1=O [Example 31, 2,2-Difluoroethyloxycarbonyl-L-Tbg-(αS,β'R)-Azf-L-Ala(3S-2-oxopyrrolidin-3-yl)-H] |  |  |  |  |  | 24 ± 2 | 3000 | 11 | > 100
CC(C)(C)[C@@H]1NC(=O)O[C@@H]2CCC[C@H]2OC/C=C/C(F)(F)c2nc3ccccc3nc2O[C@@H]2C[C@@H](C(=O)N[C@]3(C(=O)NS(=O)(=O)C4(C)CC4)C[C@H]3C(F)F)N(C2)C1=O [Glecaprevir, reference compound] |  |  |  |  | > 50 |  |  |  | 
CC(C)C[C@@]1(C(=O)N[C@H](C#N)C[C@@H]2CCNC2=O)[C@H](C)CN1C(=O)[C@@H](NC(=O)OC(C)(C)C)C(C)(C)C [Example 12] |  |  |  |  |  | 4700 ± 760 | 29000 | > 50 | 100
C[C@@H]1CN(C(=O)[C@@H](NC(=O)C(F)(F)F)C(C)(C)C)[C@]1(CC1CCCCC1)C(=O)N[C@H](C#N)C[C@@H]1CCNC1=O [Example 38] |  |  |  |  |  | 2360 ± 750 | 25000 | > 25 | > 100
COC(=O)N[C@H](C(=O)N1C[C@@H](C)[C@@]1(Cc1ccccc1)C(=O)N[C@H](C=O)C[C@@H]1CCNC1=O)C(C)(C)C [Example 30, Methyloxycarbonyl-L-Tbg-(αS,β'R)-Azf-L-Ala(3S-2-oxopyrrolidin-3-yl)-CHO] |  |  |  |  |  | 48 ± 4 | 15000 | 25 | > 100
Cc1c(-c2ccc(-c3ccccc3F)cc2)nc2ccc(F)cc2c1C(=O)O [Brequinar, reference compound] |  | < 0.6 | < 0.6 | > 50 |  |  |  |  | 
CC(C)[C@H](NC(=O)OCc1ccccc1)C(=O)N1C[C@@H](C)[C@@]1(Cc1c[nH]c2ccccc12)C(=O)N[C@H](C#N)C[C@@H]1CCNC1=O [Example 11] |  |  |  |  |  | 4740 ± 810 | 31000 | 48 | > 100
CC(C)[C@H](NC(=O)OCc1ccccc1)C(=O)N1C[C@@H](C)[C@@]1(Cc1ccccc1)C(=O)N[C@H](C#N)C[C@@H]1CCNC1=O [Example 5] |  |  |  |  |  | 130 ± 30 | 1000 | 6 | > 100
CC(C)C[C@@]1(C(=O)N[C@H](C#N)C[C@@H]2CCNC2=O)[C@H](C)CN1C(=O)[C@@H](NC(=O)C(F)(F)F)C(C)C [Example 3] |  |  |  |  |  | 2580 ± 480 | 10000 | 32 | 100
CC(C)C(NC(=O)C1CC1)C(=O)N1CC(C)C1(Cc1ccccc1)C(=O)NC(C#N)CC1CCNC1=O [Example 8, Cyclopropylcarbonyl-L-Val-(αS,β'R)-Azf-NH[(1S)-1-cyano-2-[(3'S)-2'-oxopyrrolidin-3'-yl]ethane] |  |  |  |  |  | 390 ± 50 | 8000 | 31 | > 100
